Tests used:
[1] = tested on: rHA derived from A/California/04/2009 (pH1N1); test: rHA (Cal/09) immunization: serum IgG ELISA; type: in vivo, BALB/c mice; details: 5 μg Cal/09 rHA, 3 weeks after immunization
[2] = tested on: CD8+ OT-1 T cells cultured with BMDCs; test: OT-1 CD8 T cell proliferation assay (antigen cross-presentation); type: cell-based, C57BL/6 mice; details: BMDCs with 1Z105 2 μM or MPLA 1 μg/ml overnight, OVA 10 μg/ml, 3 days
Description: (§1) (A) Upregulation of antigen uptake by 1Z105. BMDCs prepared from C57BL/6 mice were incubated with 10 μM 1Z105 or MPLA overnight. Antigen, Alexa Fluor 488-conjugated ovalbumin (OVA-488), was added to the culture for the last 30 min of incubation. The cells were washed and stained for CD11c. OVA-associated dendritic cells in the CD11c^hi population were evaluated by flow cytometry. Cells incubated at 4° C. served as a negative control. (B and C) Enhancement of expression of costimulatory molecules by 1Z105.WT (B) or Tlr4^−/− (C) BMDCs were incubated with 1Z105 (10 or 2 μM) or MPLA (0.04 μg/ml) overnight, and expression of CD40 and CD86 was assessed by flow cytometric assay. (D) 1Z105 promotes antigen cross-presentation. Wild-type BMDCs were incubated with 1Z105 (2 μM) overnight, and OVA (10 μg/ml) was added to the culture for the last 4 h of incubation. The cells were washed and cultured with CFSE-labeled CD8^+ OT1Tcells for 3 days. OT-1 T-cell proliferation was monitored by flow-cytometric assay. […] Cytokine release of IL-1β, IL-6, IL-8, IL-12p70, and TNF-α was determined by Luminex bead assay. […]
Naive CD8^+ T cells from OT-1 C57BL/6 mice were isolated using an EasySep Mouse CD8^+ T Cell Isolation Kit and stained with carboxyfluorescein succinimidyl ester (CFSE) (10 μM). […] OT-1 T cell proliferation was monitored by CFSE dilution using a flow cytometer.

[3] = tested on: rHA derived from A/Vietnam/1203/2004 (VN/04); parameters: species or system BALB/c mice; details: mouse, in vivo
OVA = OVA immunization: anti-OVA IgG1 and IgG2c by ELISA; type: in vivo, C57BL/6 mice; details: i.m. OVA 20 μg plus adjuvant, sera day 35
BMDC (C57BL/6) = test: IL-6 and IP-10 release by BMDC with 1V270 with or without 1Z105; type: cell-based, C57BL/6 mice; details: 1V270 0.025 or 0.1 μM with 1Z105 5 μM
Description: To evaluate whether 1Z105 can enhance the proinflammatory cytokine induction by 1V270, BMDC (C57BL/6) were incubated with 1V270 (0.025, or 0.1 μM) in the presence or absence of 1Z105 (5 μM). […] Antigen presenting function was evaluated using splenocytes prepared from OVA MHC class II-restricted alpha beta T cell receptor (TCR) transgenic mice OT-II. Splenocytes were cultured with OVA peptide (OVA323-339) for 3 days with 1Z105, or 1V270 alone or in combination. The frequency of intracellular (IC) IFNγ expressing CD4 T cells was determined by flow cytometric assay. Treatment with 1V270 alone increased intracellular IFNγ (3.7 and 6.8% by 25 and 100 nM, respectively).

[4] = tested on: Purified CD4+ or CD8+ T cells; test: Purified CD4+ or CD8+ T cell proliferation; type: cell-based; details: in the presence of CD3 ligation
Description: Capability for induction of antigen specific CD8 T cells is one of the ideal features for adjuvants for cancer or herpes simplex virus infection. Thus, 1V270 and 1Z105 were examined to determine whether the agonists can directly induce T cell proliferation. Purified CD4+ or CD8+ T cells were incubated with 1Z105, 1V270 alone or in combination.

[5] = tested on: Mouse bone marrow-derived dendritic cells (mBMDCs); test: Costimulatory-molecule (CD40, CD86) expression in mouse BMDCs; type: cell-based, C57BL/6 mice
Description: as §1, with “The cells were washed and cultured with CFSE-labeled CD8^+ OT1Tcells for 3 days.” left out
(§2) Mouse bone marrow-derived dendritic cells (mBMDCs) were prepared from wild type or Tlr4^−/− C57BL/6 mice. mBMDCs (10^5 cells per well) were plated in 96-well plates in 200 μl of complete RPMI 1640. […] The cells were stained for CD11c, and OVA uptake and expression of CD40 and CD86 in the CD11chi-gated population was determined by flow cytometry.

[6] = tested on: Mouse bone marrow-derived dendritic cells (mBMDCs); test: Antigen (OVA-Alexa Fluor 488) uptake in mouse BMDCs, flow cytometry; type: cell-based, C57BL/6 mice; details: 10 μM 1Z105 or MPLA overnight, 37° C., OVA-488 last 30 min
Description: as §1, with “The cells were washed and cultured with CFSE-labeled CD8^+ OT1Tcells for 3 days.” left out
as §2

[7] = in EV3 and EV7; requested 0.22-0.44 mg/mL
[8] = tested on: B/Florida/04/2006 (Yamagata lineage); parameters: species or system BALB/c mice; details: mouse, in vivo

SMILES: Cn1c2ccccc2c2nc(SCC(=O)NC3CCCCC3)n(-c3ccccc3)c(=O)c21 [Compound 1Z105]
- IgG seroresponse [1]: enhanced
- proliferation of OT-1 cells (antigen cross-presentation) [2]: induced proliferation of OT-1 cells
- IgG seroresponse [3]: enhanced
- serum anti-OVA IgG1 titers versus OVA alone (OVA): significantly higher
- IL-6 release induced by 1V270 (BMDC (C57BL/6)): significantly enhanced
- IP-10 release induced by 1V270 (BMDC (C57BL/6)): significantly enhanced
- purified CD4+ or CD8+ T cell proliferation [4]: enhanced purified CD4+ or CD8+T cell proliferation
- surface expression of CD40 and CD86 ([5]; TLR4-deficient (Tlr4-/-) BMDCs): not observed
- surface expression of CD40 and CD86 ([5]; WT BMDCs, 1Z105 10 or 2 μM, MPLA 0.04 μg/ml, overnight): increased the surface expression of CD40 and CD86 at levels similar to that of MPLA
- OVA-associated CD11chi BMDCs (antigen uptake) [6]: increased number

SMILES: CCCCCCCCC=CCCCCCCCC(=O)OCC(COP(=O)(O)OCCNC(=O)c1ccc(Cn2c(=O)[nH]c3c(N)nc(OCCOC)nc32)cc1)OC(=O)CCCCCCCC=CCCCCCCCC (centres unmarked) [Compound 1V270]
- IgG seroresponse [1]: enhanced
- solubility of 1V270 [7]: achieved to the requested concentration
- IgG seroresponse [3]: enhanced
- serum anti-OVA IgG1 titers versus OVA alone (OVA): did not induce IgG1 comparably to 1Z105
- serum anti-OVA IgG2c titers versus OVA alone (OVA): significantly higher IgG2c titers
- purified CD4+ or CD8+ T cell proliferation [4]: enhanced purified CD4+ or CD8+T cell proliferation
- mortality compared to the no-adjuvant group [8]: significantly reduced
